Patent US6994987B1, “Process for producing tripeptides” (Calpis Co., Ltd., priority 1999, dated 2006)
No end group written: not given here.

Key:
Carboxypeptidase Y = target: T1, Carboxypeptidase Y (Saccharomyces cerevisiae, UniProt P00729); experiment: Reactivity of peptidase formulations against synthetic peptides: carboxypeptidase Y alone; type: biochemical; conditions: for Existence of IPP or VPP peaks: no aminopeptidase, carboxypeptidase Y, phosphate buffer pH 5.3, 37° C. 3 hours, HPLC
T1 construct: purchased Sigma Chemical Co
T1 sequence (P00729 112-532): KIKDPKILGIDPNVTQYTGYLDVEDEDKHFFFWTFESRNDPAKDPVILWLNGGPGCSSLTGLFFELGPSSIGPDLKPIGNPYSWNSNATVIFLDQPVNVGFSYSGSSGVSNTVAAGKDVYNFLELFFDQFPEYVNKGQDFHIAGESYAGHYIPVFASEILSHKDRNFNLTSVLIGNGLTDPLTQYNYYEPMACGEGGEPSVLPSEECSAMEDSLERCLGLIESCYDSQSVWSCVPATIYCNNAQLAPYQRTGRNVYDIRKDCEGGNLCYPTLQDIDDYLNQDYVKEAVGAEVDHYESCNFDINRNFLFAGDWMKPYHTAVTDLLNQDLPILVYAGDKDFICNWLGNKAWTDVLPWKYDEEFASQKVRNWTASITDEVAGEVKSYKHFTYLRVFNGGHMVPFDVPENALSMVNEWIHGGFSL
Experimental: (§1) Peptides shown in Table 1 were chemically synthesized. […] All of these synthetic peptides were synthesized with the automatic peptide synthesizing machine PPSM-8 (manufactured by Shimadzu Corporation).
(§2) Each synthetic peptide was dissolved at the concentration of 10 μg/ml in 100 mM phosphate buffer pH 5.3 as to Experiments 1-1 to 1-4, 1-10 to 1-12, 1-16 and 1-21, or in 50 mM Tris-HCl buffer pH 8.0 as to other Experiments. Each of various peptidase formulations shown in Table 1 was then added so that the concentration thereof became 0.01 μg/ml, and the reaction was performed at 37° C. for 3 hours. After the enzyme reaction, the mixture was analyzed by the reverse phase high performance liquid chromatography (HPLC). […] The fractions of the detected peak were collected and amino acid sequence analysis was performed by the automatic peptide analyzer model PPSQ-10 (manufactured by Shimadzu Corporation). […]

[1] = system: fraction 4 (peptidase derived from Lactobacillus helveticus); experiment: Reaction of fraction 4 with chemically synthesized intermediate peptides as substrates; type: biochemical; conditions: substrate peptide reacted with fraction 4, HPLC
Experimental: A milk medium containing 9 wt % skim milk was inoculated with lactic acid bacteria Lactobacillus helveticus CM4 strain (deposited at National Institute of Bioscience and Human-Technology (1-3, Higashi 1 chome Tsukuba-shi Ibaraki-ken 305, Japan) under deposition number FEFM BP-6060 on Aug. 15, 1997) (referred to hereinbelow as CM4 strain). The bacteria were cultured at 37° C. for 24 hours. The CM4 strain has been accorded the aforementioned accession number under the Budapest Treaty on the International Recognition of the Deposit of Microorganisms for the Purposes of Patent Procedure. All restrictions on the availability to the public of this strain will be irrevocably removed upon the granting of a patent. To 500 ml of a fresh 9 wt % milk medium, cultured mixture was added at 5 wt %. […] was performed at 37° C. and at the pH of 6.5. Five hours after the start of pH stat culturing, sodium citrate was added so that the final concentration thereof became 2 wt %. The mixture was stirred for 30 minutes at room temperature. After confirming that the cultured liquid became clear, cell bodies were collected by centrifugation at 5000 g for 10 minutes. The cell bodies were washed twice with 50 mM phosphate buffer containing 150 mM NaCl pH 6.8, and suspended in 20 ml of 50 mM tris-Cl pH 8.0, and then crushed with an ultrasonic crusher (model 5203, manufactured by Ohtake Works Co.). Centrifugation at 15000 g was performed for 10 minutes for removing the precipitant and collecting the supernatant as a crude extract. 5 ml of the crude extract was passed through 1 ml of DEAE-sepharose column (manufactured by Pharmacia Corporation) that has been pre-equilibrated with the tris buffer. The column was washed with 5 ml of the tris buffer and then sequentially washed with 3 ml of tris buffers containing 50 mM, 100 mM, 150 mM, 200 mM, 300 mM and 500 mM NaCl, for fractionation.
An intermediate peptide Val-Pro-Pro-Phe-Leu was chemically synthesized. The synthesized peptide was dissolved at 10 μg/ml in 100 mM phosphate buffer (pH 6.1). This solution and one of the fractions 1 to 6 were mixed at the volume ratio of 9:1, and reacted at 37° C. for 30 minutes.
Further, it was confirmed that the tripeptide Ile-Pro-Pro was produced from the peptides Ile-Pro-Pro-Leu-Thr-Gln-Thr and Ile-Pro-Pro-Leu-Thr.

[2] = target: angiotensin converting enzyme (ACE) (Homo sapiens, UniProt P12821); conditions: known in the prior art; cited from earlier work
[3] = system: spontaneous hypertension rats (SHR); conditions: known in the prior art; cited from earlier work
hypertensive patients = conditions: known in the prior art; cited from earlier work
[4] = reported in JP-A-11-100328; cited from earlier work
[5] = system: synthetic peptide consisting of the 28 amino acids (SEQ ID NO: 28); experiment: Two step reaction of proteinase and fraction 4 on the 28 amino acid synthetic peptide; type: biochemical; conditions: proteinase 0.1 μg/ml on 28-mer 10 μg/ml, pH 6.1, 37° C. 5 hours, heat inactivation, then fraction 4; HPLC
Experimental: To 10 μg/ml of the synthetic peptide consisting of the 28 amino acids that is the same as the one used in Experiment 2 (in 100 mM phosphate buffer pH 6.1), each of the commercially available proteinase enzymes for food processing shown in Table 4 was added at 0.1 μg/ml. The mixture was reacted at 37° C. for 5 hours. After finishing the reaction, the reacted liquid was heated at 100° C. for 5 minutes for inactivating the proteinase, and then reacted with the fraction 4 obtained in Experiment 4.

[6] = system: Aminipeptidase I + Carboxypeptidase Y; experiment: Reactivity of peptidase formulations against synthetic peptides: aminopeptidase I + carboxypeptidase Y; type: biochemical; conditions: phosphate buffer pH 5.3, 37° C. 3 hours, HPLC
Experimental: as §1, §2

Chain of angiotensin converting enzyme (ACE) (P12821 30-1306, species assumed): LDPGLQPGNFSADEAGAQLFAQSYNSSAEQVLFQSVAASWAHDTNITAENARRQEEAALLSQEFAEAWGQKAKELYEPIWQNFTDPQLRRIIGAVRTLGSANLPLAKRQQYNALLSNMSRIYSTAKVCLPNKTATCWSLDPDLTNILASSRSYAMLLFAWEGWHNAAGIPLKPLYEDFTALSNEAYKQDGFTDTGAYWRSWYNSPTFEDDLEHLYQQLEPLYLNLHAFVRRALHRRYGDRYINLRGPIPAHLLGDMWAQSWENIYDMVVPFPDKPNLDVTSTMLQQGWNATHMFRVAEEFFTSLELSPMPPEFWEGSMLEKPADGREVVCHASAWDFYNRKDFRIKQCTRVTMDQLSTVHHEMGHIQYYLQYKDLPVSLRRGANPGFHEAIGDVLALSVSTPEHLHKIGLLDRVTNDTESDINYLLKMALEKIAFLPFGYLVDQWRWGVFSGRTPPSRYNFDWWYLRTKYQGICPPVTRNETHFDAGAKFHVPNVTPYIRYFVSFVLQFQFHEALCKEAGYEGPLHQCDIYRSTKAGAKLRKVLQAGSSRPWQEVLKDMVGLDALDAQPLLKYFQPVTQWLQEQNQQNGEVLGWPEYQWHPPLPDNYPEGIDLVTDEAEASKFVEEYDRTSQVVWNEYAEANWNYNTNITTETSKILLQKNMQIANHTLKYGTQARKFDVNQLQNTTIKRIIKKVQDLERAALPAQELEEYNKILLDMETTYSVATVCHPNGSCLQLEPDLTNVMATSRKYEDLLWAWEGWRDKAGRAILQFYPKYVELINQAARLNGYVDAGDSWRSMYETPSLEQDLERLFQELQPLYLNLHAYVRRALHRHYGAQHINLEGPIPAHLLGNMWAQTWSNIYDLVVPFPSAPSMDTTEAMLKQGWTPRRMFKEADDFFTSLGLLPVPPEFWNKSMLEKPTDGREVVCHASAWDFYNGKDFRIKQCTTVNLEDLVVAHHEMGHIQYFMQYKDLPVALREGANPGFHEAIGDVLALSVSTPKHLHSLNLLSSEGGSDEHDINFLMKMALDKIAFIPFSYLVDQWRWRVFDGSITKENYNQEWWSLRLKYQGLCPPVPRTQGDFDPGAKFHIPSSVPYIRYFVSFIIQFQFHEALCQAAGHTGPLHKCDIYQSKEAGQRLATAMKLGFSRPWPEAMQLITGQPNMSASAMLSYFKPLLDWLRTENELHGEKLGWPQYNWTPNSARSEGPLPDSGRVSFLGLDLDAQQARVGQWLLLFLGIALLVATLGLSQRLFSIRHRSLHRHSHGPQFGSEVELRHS

Molecule: IPPLTQT
- Existence of IPP or VPP peaks (Carboxypeptidase Y): IPP
- Peptide produced [1]: Ile Pro Pro
- Peptide produced ([1]; listed as Ile-Pro-Pro-Leu-Thr-Gln-Thr): Ile-Pro-Pro

Molecule: Ile Pro Pro (IPP) [Ile-Pro-Pro, tripeptide produced by the method]
- ACE inhibitory activity [2]: strong
- anti-hypertensive activity on spontaneous hypertension rats (SHR) [3]: strong anti-hypertensive activity
- anti-hypertensive effect on hypertensive patients (hypertensive patients): anti-hypertensive effect
- anti-stress activity [4]: anti-stress activity

Molecule: Ile Pro Pro Leu Thr (IPPLT)
- Peptide produced [1]: Ile Pro Pro
- Peptide produced ([1]; listed as Ile-Pro-Pro-Leu-Thr): Ile-Pro-Pro

Molecule: Leu-Pro-Pro [reference compound]
- ACE inhibitory activity [2]: ACE inhibitory activity

Molecule: Pepsin
- Production of the tripeptides Ile-Pro-Pro and Val-Pro-Pro [5]: No

Molecule: QNIPPLTQT
- Existence of IPP or VPP peaks [6]: IPP
- Existence of IPP or VPP peaks ([6]; listed as Gln-Asn-Ile-Pro-Pro-Leu-Thr-Gln-Thr): production of the tripeptides Ile-Pro-Pro or Val-Pro-Pro was also recognized

Molecule: VPPFLQ
- Existence of IPP or VPP peaks (Carboxypeptidase Y): VPP
- Peptide produced [1]: Val Pro Pro
- Peptide produced ([1]; listed as Val-Pro-Pro-Phe-Leu-Gln): Val-Pro-pro

Molecule: VVVPPFLQ
- Existence of IPP or VPP peaks [6]: VPP
- Existence of IPP or VPP peaks ([6]; listed as Val-Val-Val-Pro-Pro-Phe-Leu-Gln): production of the tripeptides Ile-Pro-Pro or Val-Pro-Pro was also recognized

Molecule: Val Pro Pro (VPP) [Val-Pro-Pro, tripeptide produced by the method]
- anti-hypertensive activity on spontaneous hypertension rats (SHR) [3]: strong anti-hypertensive activity
- anti-hypertensive effect on hypertensive patients (hypertensive patients): anti-hypertensive effect
- anti-stress activity [4]: anti-stress activity

Molecule: Val Pro Pro Phe (VPPF)
- Existence of IPP or VPP peaks (Carboxypeptidase Y): VPP

Molecule: Val Pro Pro Phe Leu (VPPFL)
- Peptide produced [1]: Val Pro Pro
- Peptide produced ([1]; listed as Val-Pro-Pro-Phe-Leu): Val-Pro-pro

B1: Subtilisin Carlsberg: proteinase, Bacillus licheniformis, Sigma Chemical Co. (protein, UniProt P00780 106-379, looked up)
Subtilisin Carlsberg: AQTVPYGIPLIKADKVQAQGFKGANVKVAVLDTGIQASHPDLNVVGGASFVAGEAYNTDGNGHGTHVAGTVAALDNTTGVLGVAPSVSLYAVKVLNSSGSGSYSGIVSGIEWATTNGMDVINMSLGGASGSTAMKQAVDNAYAKGVVVVAAAGNSGSSGNTNTIGYPAKYDSVIAVGAVDSNSNRASFSSVGAELEVMAPGAGVYSTYPTNTYATLNGTSMASPHVAGAAALILSKHPNLSASQVRNRLSSTATYLGSSFYYGKGLINVEAAAQ
- Production of the tripeptides Ile-Pro-Pro and Val-Pro-Pro [5]: No

B2: carboxy peptidase Y: Carboxypeptidase Y (manufactured by Sigma Chemical Co.) (protein, UniProt P00729 112-532, looked up)
Carboxypeptidase Y: T1 sequence (P00729 112-532)
- Bond cleavage by the enzyme (in words) (Carboxypeptidase Y; reaction at pH 5.3): capable of effectively cleave the bond between Pro and Leu in Pro-Pro-Leu and the bond between Pro and Phe in Pro-Pro-Phe

B3: Trypsin (Type I): proteinase, bovine pancreas, Sigma Chemical Co. (protein, UniProt P00760 24-246, looked up)
Serine protease 1: IVGGYTCGANTVPYQVSLNSGYHFCGGSLINSQWVVSAAHCYKSGIQVRLGEDNINVVEGNEQFISASKSIVHPSYNSNTLNNDIMLIKLKSAASLNSRVASISLPTSCASAGTQCLISGWGNTKSSGTSYPDVLKCLKAPILSDSSCKSAYPGQITSNMFCAGYLEGGKDSCQGDSGGPVVCSGKLQGIVSWGSGCAQKNKPGVYTKVCNYVSWIKQTIASN
- Production of the tripeptides Ile-Pro-Pro and Val-Pro-Pro [5]: No

B4: Subtilisin BPN: proteinase, Bacillus amyloliquefaciens, Sigma Chemical Co. (protein, UniProt P00782 108-382, looked up)
Subtilisin BPN': AQSVPYGVSQIKAPALHSQGYTGSNVKVAVIDSGIDSSHPDLKVAGGASMVPSETNPFQDNNSHGTHVAGTVAALNNSIGVLGVAPSASLYAVKVLGADGSGQYSWIINGIEWAIANNMDVINMSLGGPSGSAALKAAVDKAVASGVVVVAAAGNEGTSGSSSTVGYPGKYPSVIAVGAVDSSNQRASFSSVGPELDVMAPGVSIQSTLPGNKYGAYNGTSMASPHVAGAAALILSKHPNWTNTQVRSSLENTTTKLGDSFYYGKGLINVQAAAQ
- Production of the tripeptides Ile-Pro-Pro and Val-Pro-Pro [5]: No
